US12492337B2, “Fluorescent probe, preparation method therefor and use thereof” (FLUORESCENCE DIAGNOSIS (SHANGHAI) BIOTECH COMPANY, priority 2017, dated 2025)

Assays:
[1] = Viscosity responsiveness: fluorescence intensity in glycerol versus methanol; assay type: physicochemical; conditions: fluorescence intensity in glycerol to that in methanol
Summary of the method: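 At 25 °C, with the same dye concentration and excitation wavelength, maximum emission intensity in glycerol was compared with intensity in methanol, giving a ratio. Dye concentrations ranged from 1×10^−7 M to 1×10^−5 M.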

[2] = test system: Hela cells stably expressing HaloTag protein tags; experiment: Confocal imaging of labeled Hela cells stably expressing HaloTag protein tags (Example 89); assay type: cell-based; conditions: Homo sapiens, 5 μM probe, 2 hours, 37° C., confocal microscope, read-out: fluorescence signal enhancement in Hela cells expressing the protein tag
Procedure: (§1) Hela cells are used as an example to test the labeling effect of compounds in mammalian cells. Hela cells and Hela-WT cells (Hela primitive cell, without a protein tag expressed) stably expressing HaloTag protein tags were planted in 14 mm 96-well glass bottom cell culture plates and stabilized for 10 hours. Probe 57, probe 59, probe 60, probe 61, probe 69, probe 75, probe 76, probe 82 were added to the culture medium and diluted to 5 μM, respectively. The cells were incubated in a 37° C. carbon dioxide incubator for 2 hours, and the fluorescence changes of the labeled cells were detected by imaging with a Leica TPS-8 confocal microscope.

[3] = Quantum yield of free probe not reacted with protein tag; assay type: physicochemical
Procedure: (§2) A probe was mixed with a corresponding HaloTag protein tag to obtain a mixed sample. The final concentration of the probe in the mixed sample was 5 μM and the final concentration of the protein tag was 10 μM. The mixed sample was incubated at 37° C. for 1 hour, and the sample was detected using a fluorescence spectrophotometer.

[4] = test system: HaloTag protein tag; experiment: Probe mixed with HaloTag protein tag, fluorescence spectrophotometer (Example 86); assay type: biochemical; conditions: 5 μM probe, 10 μM protein tag, 37° C., 1 hour; for Fluorescence enhancement: fluorescence activation multiple after binding protein tag; for Emission/nm: fluorescence emission wavelength
Procedure: as §2

[5] = test system: fusion protein CX43-HaloTag; experiment: Tracing assembly of CX43-HaloTag intercellular channels in Hela cells (Example 94); assay type: cell-based
Text: To verify that the probe can be used to monitor the assembly and degradation of biomacromolecules in mammalian cells in real time, Hela cells were used as an example to detect the process of tracing, by a probe, the assembly of intercellular protein CX43 to form intercellular channels in mammalian cells. The C-terminus of CX43 gene was fused with HaloTag gene, and a Hela cell line stably expressing the fusion protein CX43-HaloTag was constructed and obtained by lentiviral infection technology. Hela-CX43-HaloTag cell lines were implanted in a 20 mm glass-bottom cell culture dish 10 hours before the probe labeling. When labeling, the probe 61 μM was first diluted to 2 μM with phenol red-free DMEM medium and replaced the original cell culture medium. The cells were incubated in a 37° C. carbon dioxide incubator for 1 hour. Thereafter, the cells were washed twice with fresh phenol red-free DMEM medium, and the unbound probe 61 was removed at intervals of 2 min. Then, a DMEM phenol-free medium containing 1 μM probe 57 was added to label the cells, and a Leica SP8 confocal microscope was used to monitor the fluorescence intensity and position changes of labeled cells at the corresponding fluorescence channels of probe 61 and probe 57 for a long time, which are shown in FIGS. 17A and 17B, respectively. […]

[6] = test system: HaloTag protein tags in different subcellular organelles of Hela cells; experiment: Labeling HaloTag protein tags in different subcellular organelles of Hela cells (Example 90); assay type: cell-based; conditions: 0.2 μM probe, 2 hours, no washing; cytoskeleton, mitochondria, nucleus, Golgi, whole cells, lysosomes
Procedure: In order to verify that probe 57, probe 59, probe 60, probe 61, probe 62, and probe 63 can be used to label target proteins located in different organelles. Hela cells were used as examples to detect the effect of probes on labeling HaloTag protein tags in different subcellular organelles. Hela cells were implanted 5000 cells per well in 96-well glass-bottom cell culture plates. After 14 hours, lipo2000 kit was used to transfect the plasmids localized by HaloTag protein tags in different organelles. The original culture medium was removed 24 hours after transfection, and the cells were washed twice with a phenol red-free DMEM medium, and incubated for 2 hours in a phenol red-free medium containing 0.2 μM probes, and the effect of cell labelling was detected by imaging using a Leica TCS-8 confocal microscope.

[7] = test system: Hela-WT cells; experiment: Confocal imaging of Hela-WT cells without protein tag (Example 89); assay type: cell-based; conditions: 5 μM probe, 2 hours, 37° C., confocal microscope
Procedure: as §1

[8] = test system: HaloTag-IAA17-H2B protein; experiment: Fluorescence change on IAA-induced degradation of HaloTag-IAA17-H2B in Hela cells (Example 93); assay type: cell-based; conditions: 1 μM probe, 1 hour labeling, then IAA-induced protein degradation
Procedure: In order to verify the correlation between the fluorescent activation of the probe and the presence of protein, the HaloTag protein in mammalian cells was taken as an example, and the AID degradation system in Hela cells was used as an example to detect the fluorescence changes of HaloTag protein binding probes after protein degradation. First, Hela cells were implanted 20,000/cm^2 in a 20 mm glass-bottomed cell culture dish. After 14 hours, pcdna3.1-TIR1 and pcdna3.1-HaloTag-IAA17-H2B plasmids were transfected with lipofectmain2000 transfection reagent from invirtogen. 24 hours after cell transfection, the original cell culture medium was replaced with a phenol red-free DMEM medium containing 1 μM probe 61 to label the cells, and the cell samples were incubated in a 37° C. carbon dioxide incubator for 1 hour. After the labeling was completed, the fluorescence signal of cell labels was detected by imaging using a Leica SP8 laser confocal microscope. Then, indole acetic acid (IAA) was added to induce the degradation of HaloTag-IAA17-H2B protein, and the changes in cell fluorescence during protein degradation were detected. […] When proteins are present, fluorescence is activated, and when proteins are degraded, fluorescence disappears, which can be used to track and monitor the degradation process of target proteins.

[9] = test system: HaloTag protein tag expressed in the liver; experiment: Labeling of HaloTag protein tag expressed in mouse liver, in vivo imaging system (Example 92); parameters: species or system mice; conditions: 0.4 μM probe in 200 ul PBS via tail vein, 6 hours later
Procedure: First, a plasmid pcdna3.1-HaloTag (sample group) expressing the HaloTag protein tag and a control plasmid pcdna3.1-CAT (control group) not expressing the HaloTag protein tag were introduced into mice. This method is to dissolve the plasmid in a large volume of solution and inject it into mice quickly through tail vein injection. The mouse liver absorbs DNA and then expresses the target protein. 20 hours after the plasmid injection, 0.4 μM probe 77 dissolved in 200 ul of PBS was injected into the mice via tail vein injection to label the HaloTag protein tag; 6 hours later, the mice were dissected out, and the fluorescence differences in the liver parts of different mouse samples were detected by KODAK multi-spectral in vivo imaging system.
The fluorescence of the liver of the control plasmid pcdna3.1-CAT injected with the probe 77 was very low, which was close to the background fluorescence level of the blank liver without the probe injected, and the liver of the HaloTag plasmid pcdna3.1-HaloTag injected with the probe 77 had strong fluorescence, and the signal intensity was more than 20 times that of the control group.

[10] = test system: SNAP protein; experiment: Labeling speed and fluorescence intensity, purified SNAP protein, microplate reader (Example 95); assay type: biochemical
Procedure: To verify that the probe-labeled HaloTag protein tag has a faster labeling speed and higher fluorescence intensity than the probe-labeled SNAP protein tag, a probe 48-labeled HaloTag protein tag and a reference probe 85-labeled SNAP protein tag were taken as examples (probe 48 and reference probe 85 have the same fluorescent dye portion). When labeling, the purified HaloTag protein and SNAP protein were first diluted to 7.5 μM with PBS.
Probe 48 and reference probe 85 were diluted to 15 μM with PBS, and 20 μL of probe 48 was added to 80 μL of HaloTag protein and mixed, 20 μL of reference probe 85 was added to 80 μL of SNAP protein and mixed, and a microplate reader was used to monitor the changes in fluorescence intensity of the two solutions excited at 620 nm and emitted at 650 nm, which lasted for two hours.

Compound	ratio [1]	fold induction at 5 µM [2]	The quantum yield of the free probe [3]	The quantum yield after binding to Halo-tag [4]	Fluorescence enhancement [4]	Emission/nm [4] [nm]	fluorescent signal in the probe 57 channel when just added ([5]; 1 μM probe added after labeling with probe 61 and washing)	effect of cell labelling of subcellular organelles [6]	fluorescent signal in Hela-WT cells [7]	fluorescence signal after indoleacetic acid added for 90 min [8]	fluorescent signal in the probe 61 fluorescence channel ([5]; 2 μM probe, 1 hour, Hela-CX43-HaloTag cells)	liver fluorescence signal intensity relative to the control group ([9]; mice with pcdna3.1-HaloTag)	fluorescence of the liver of control plasmid pcdna3.1-CAT mice ([9]; mice without HaloTag expression)	labeling time of the SNAP protein tag labeled by the probe ([10]; 20 μL 15 μM probe + 80 μL 7.5 μM protein in PBS, excited at 620 nm, emitted at 650 nm)	fluorescence intensity lower than the former (probe 48-labeled HaloTag) by ([10]; same conditions as probe 48 with HaloTag protein) [time]
CN(C)c1ccc(/C=C(\C#N)C(=O)NCCOCCOCCCCCCCl)cc1 [Probe 57]	762	~200	<0.001	0.56	1026	480	fluorescent signal could not be detected	clearly display a variety of subcellular organelle structures without washing	no corresponding fluorescent signal could be detected	–	–	–	–	–	–
CN(C)c1cc2sc(/C=C(\C#N)C(=O)NCCOCCOCCCCCCCl)cc2s1 [Probe 61]	817	~200	0.0012	0.59	668	552	–	clearly display a variety of subcellular organelle structures without washing	no corresponding fluorescent signal could be detected	almost invisible	long column-shaped specific fluorescent signal between the two cells	–	–	–	–
CN(C)c1cc2c(s1)-c1sc(/C=C(\C#N)C(=O)OCCOCCOCCCCCCCl)cc1C2(C)C [Probe 77]	479	–	0.0014	0.53	721	652	–	–	–	–	–	more than 20 times	very low	–	–
CN(CCOC(=O)NCc1ccc(COc2nc(N)nc3[nH]cnc23)cc1)c1cc2c(s1)-c1sc(/C=C(\C#N)C(=O)OC(C)(C)C)cc1C2(C)C [Reference Probe85, reference compound]	510	–	<0.001	0.32	321	645	–	–	–	–	–	–	–	about 7 min	≥ 1
